The text below walks through data of patent US11072626B2, “Small molecule inhibitors of Galectin-3” (BRISTOL-MYERS SQUIBB COMPANY, priority 2017, dated 2021).

Chain of His-tagged recombinant human Gal-3 (hGal-3) (P17931 whole entry): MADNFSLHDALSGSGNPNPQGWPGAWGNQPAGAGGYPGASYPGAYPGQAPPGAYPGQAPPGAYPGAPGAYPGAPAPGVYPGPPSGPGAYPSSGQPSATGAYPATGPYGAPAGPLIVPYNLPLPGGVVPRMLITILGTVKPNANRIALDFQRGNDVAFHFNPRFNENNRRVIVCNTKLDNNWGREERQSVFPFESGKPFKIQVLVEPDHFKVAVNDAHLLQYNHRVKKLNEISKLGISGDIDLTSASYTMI

One assay concerns the target His-tagged recombinant human Gal-3 (hGal-3) (Homo sapiens (Human), UniProt P17931). The experiment in a line: Gal-3 HTRF assay (hGal-3 / B-ASF). The format is binding. Conditions: 15 nM hGal-3, 15 nM B-ASF, table after Example 4, read-out: hGal3 IC50. Here is the method:
ASSAY BUFFER Composition: 25 mM HEPES, 100 mM NaCl, 0.005% Tween 20, 0.05% BSA prepared in sterile water (all reagents from Sigma)
Positive Control: 100% DMSO (1 μl)+His-tagged hGal-3 (20 μL)+B-ASF (20 μl)+Anti-His Terbium Antibody (5 μl)+Strep d2 Antibody (5 μl).
Negative Control: 100% DMSO (1 μl)+His-tagged hGal-3 (20μL)+Anti His Terbium Antibody (5 μl)+Strep d2 Aantibody (5 μl).
PROTOCOL: The Gal-3 assays were performed in 384 white Opti plates in three replicates at room temperature with gentle shaking at 250-300 rpm From the original stocks, […] working stock concentrations of His-tagged recombinant human Gal-3 (hGal-3) and that of B-ASF were prepared. From the working stock, 20 μl of hGal-3 (15 nM) and 20 μl B-ASF (15 nM) were added to the plates. In Negative Control, only hGal-3 was added. A concentration range of 50× working stocks were prepared for the compounds in 100% DMSO. Aliquots of 1 uL of the compounds were added to the wells and pre-incubated with 20 μl hGal-3 per well for 30 minutes Then 20 μl B-ASF were added and incubated for another 1 hour. To detect the signal, 5 μ(final conc. of 1.0 nM) terbium labelled Anti-His antibody was added and incubated for 30 min followed by adding 5 μ(final conc. of 20 nM) Streptavidin d2 and incubation for another 1 hour. The assay signal was detected using HTRF screen protocol (Excitation wavelength=340 nm, emission wavelength=615 nm/665 nm) on Envision 2104 Multilabel Reader. Data analysed using Toolset and Curve Master. Results are reported in the experimental section (IC50 in μM).
(Time-resolved FRET reads energy transfer from a long-lived donor to a nearby acceptor.)
For the compound `O=C(O)CO[C@@H]1[C@@H](n2cc(-c3cc(F)c(F)c(F)c3)nn2)[C@@H](O)[C@@H](CO)O[C@@H]1Sc1ccc(Cl)c(Cl)c1` [compound 2, 2-(((2R,3R,4S,5R,6R)-2-((3,4-dichlorophenyl)thio)-5-hydroxy-6-(hydroxymethyl)-4-(4-(3,4,5-trifluorophenyl)-1H-1,2,3-triazol-1-yl)tetrahydro-2H-pyran-3-yl)oxy)acetic acid], the IC50 (commonly the midpoint of a concentration-inhibition curve) worked out at 46 nM.

The same assay, now with this note: 15 nM hGal-3, 15 nM B-ASF, table after Example 20, read-out: hGal3 IC50.
On to `O=C(CO[C@@H]1[C@@H](n2cc(-c3cc(F)c(F)c(F)c3)nn2)[C@@H](O)[C@@H](CO)O[C@@H]1Sc1ccc(Cl)c(Cl)c1)N1CCC[C@H](O)C1` [Example 33, 2-(((2R,3R,4S,5R,6R)-2-((3,4-dichlorophenyl)thio)-5-hydroxy-6-(hydroxymethyl)-4-(4-(3,4,5-trifluorophenyl)-1H-1,2,3-triazol-1-yl)tetrahydro-2H-pyran-3-yl)oxy)-1-((S)-3-hydroxypiperidin-1-yl)ethan-1-one], for which the IC50 came out at 60 nM.
Same read-out and setting: for `O=C(CO[C@@H]1[C@@H](n2cc(-c3cc(F)c(F)c(F)c3)nn2)[C@@H](O)[C@@H](CO)O[C@@H]1Sc1ccc(Cl)c(Cl)c1)N1CCS(=O)(=O)CC1` [Example 22, 2-(((2R,3R,4S,5R,6R)-2-((3,4-dichlorophenyl)thio)-5-hydroxy-6-(hydroxymethyl)-4-(4-(3,4,5-trifluorophenyl)-1H-1,2,3-triazol-1-yl)tetrahydro-2H-pyran-3-yl)oxy)-1-(1,1-dioxidothiomorpholino)ethan-1-one] the value was 43 nM; for `O=C(CO[C@@H]1[C@@H](n2cc(-c3cc(F)c(F)c(F)c3)nn2)[C@@H](O)[C@@H](CO)O[C@@H]1Sc1ccc(Cl)c(Cl)c1)NC1CC2(CC(O)C2)C1` (stereo partly shown) [Example 34], 660 nM; for `O=C1CN(C(=O)CO[C@@H]2[C@@H](n3cc(-c4cc(F)c(F)c(F)c4)nn3)[C@@H](O)[C@@H](CO)O[C@@H]2Sc2ccc(Cl)c(Cl)c2)CCN1` [Example 26], 86 nM.

The assay is the same for the next values; noted with them: 15 nM hGal-3, 15 nM B-ASF, table after Example 46, read-out: hGal3 IC50.
For `COC(=O)c1ccc(-c2cn([C@H]3[C@@H](O)[C@@H](CO)O[C@H](Sc4ccc(Cl)c(Cl)c4)[C@@H]3OCC(=O)O)nn2)cc1` [Example 56], the IC50 was 7430 nM.
On to `Cc1cc(-c2cn([C@H]3[C@@H](O)[C@@H](CO)O[C@H](Sc4ccc(Cl)c(Cl)c4)[C@@H]3OCC(=O)O)nn2)ccc1F` [Example 54], for which the IC50 turned out to be 230 nM.
Same read-out and setting: for `O=C(O)CO[C@@H]1[C@@H](n2cc(-c3ccc(F)c(F)c3)nn2)[C@@H](O)[C@@H](CO)O[C@@H]1Sc1ccc(Cl)c(Cl)c1` [Example 55] the value was 70 nM; for `Cc1ccccc1-c1cn([C@H]2[C@@H](O)[C@@H](CO)O[C@H](Sc3ccc(Cl)c(Cl)c3)[C@@H]2OCC(=O)O)nn1` [Example 53], 1750 nM.

Staying with this assay, now noted: 15 nM hGal-3, 15 nM B-ASF, three replicates, room temperature, read-out: hGal3 IC50.
`OC[C@H]1O[C@H](Sc2ccc(Cl)c(Cl)c2)C[C@@H](n2cc(-c3cc(F)c(F)c(F)c3)nn2)[C@H]1O` [Example 60, (2R,3R,4R,6R)-6-((3,4-dichlorophenyl)thio)-2-(hydroxymethyl)-4-(4-(3,4,5-trifluorophenyl)-1H-1,2,3-triazol-1-yl)tetrahydro-2H-pyran-3-ol]: the half-inhibitory concentration (IC50) came out at 2200 nM.
Still for that read-out and setting: for `CO[C@@H]1[C@@H](n2cc(-c3cc(F)c(F)c(F)c3)nn2)[C@@H](O)[C@@H](CO)O[C@@H]1Sc1ccc(Cl)c(Cl)c1` [Example 1, (2R,3R,4S,5R,6R)-6-((3,4-dichlorophenyl)thio)-2-(hydroxymethyl)-5-methoxy-4-(4-(3,4,5-trifluorophenyl)-1H-1,2,3-triazol-1-yl)tetrahydro-2H-pyran-3-ol] the value was 700 nM; for `CO[C@@H]1[C@@H](n2cc(-c3cc(F)c(F)c(F)c3)nn2)[C@@H](O)[C@@H](CO)O[C@@H]1S(=O)(=O)c1ccc(Cl)c(Cl)c1` [Example 3, (2R,3R,4S,5R,6R)-6-((3,4-dichlorophenyl)sulfonyl)-2-(hydroxymethyl)-5-methoxy-4-(4-(3,4,5-trifluorophenyl)-1H-1,2,3-triazol-1-yl)tetrahydro-2H-pyran-3-ol], 112 nM.
Regarding `CCO[C@@H]1[C@@H](n2cc(-c3cc(F)c(F)c(F)c3)nn2)[C@@H](O)[C@@H](CO)O[C@@H]1S(=O)(=O)c1ccc(Cl)c(Cl)c1` [Example 10, (2R,3R,4S,5R,6R)-6-((3,4-dichlorophenyl)sulfonyl)-5-ethoxy-2-(hydroxymethyl)-4-(4-(3,4,5-trifluorophenyl)-1H-1,2,3-triazol-1-yl)tetrahydro-2H-pyran-3-ol], the IC50 is 200 nM.
Consider `O=C(O)CO[C@@H]1[C@@H](n2cnc(-c3cccc(F)c3)c2)[C@@H](O)[C@@H](CO)O[C@@H]1Sc1ccc(Cl)c(Cl)c1` [Example 63, 2-(((2R,3R,4S,5R,6R)-2-((3,4-dichlorophenyl)thio)-4-(4-(3-fluorophenyl)-1H-imidazol-1-yl)-5-hydroxy-6-(hydroxymethyl)tetrahydro-2H-pyran-3-yl)oxy)acetic acid], for which the IC50 was 1560 nM.
Consider `O=C(O)CO[C@@H]1[C@@H](n2cc(-c3cc(F)c(F)c(F)c3)nn2)[C@@H](O)[C@@H](CO)O[C@@H]1S(=O)(=O)c1ccc(Cl)c(Cl)c1` [Example 19, 2-(((2R,3R,4S,5R,6R)-2-((3,4-dichlorophenyl)sulfonyl)-5-hydroxy-6-(hydroxymethyl)-4-(4-(3,4,5-trifluorophenyl)-1H-1,2,3-triazol-1-yl)tetrahydro-2H-pyran-3-yl)oxy)acetic acid], for which the IC50 came out at 60 nM.
On the same count and under the same terms, for `O=C(O)/C=C/O[C@@H]1[C@@H](n2cc(-c3cc(F)c(F)c(F)c3)nn2)[C@@H](O)[C@@H](CO)O[C@@H]1Sc1ccc(Cl)c(Cl)c1` [Example 40 (trans-isomer), (E)-3-(((2R,3R,4S,5R,6R)-2-((3,4-dichlorophenyl)thio)-5-hydroxy-6-(hydroxymethyl)-4-(4-(3,4,5-trifluorophenyl)-1H-1,2,3-triazol-1-yl)tetrahydro-2H-pyran-3-yl)oxy)acrylic acid] the value was 60 nM.
